Source: PMC7805408, “Filaggrin Polymorphisms and the Uptake of Chemicals through the Skin—A Human Experimental Study” (Environmental Health Perspectives, 2021)

Key:
[1] = Population toxicokinetic analysis of dermal absorption and disposition (three-compartment model, Monolix); assay type: in vivo, human; details: for Lag time (mean±SD): dermal absorption; for Lag time (mean±SD) / Absorption rate constant (mean±SD): unadjusted; for Absorption rate constant (mean±SD): dermal; for Rate constant K21 (mean ± SD): from the central to the peripheral compartment; for Rate constant K12 (mean ± SD): from the peripheral to the central compartment
Procedure: Dermal absorption and disposition were assessed by population toxicokinetic analysis. A three-compartment structural model representing skin and central and peripheral tissues was used (Figure 2). The skin compartment encompasses a lag time for skin penetration ( Tlag ) and an absorption rate constant ( ka ). Urinary excretion from the central compartment was described by an elimination rate constant ( ke ), and exchange between the central and peripheral compartments was described by two rate constants ( k12 and k21 ). All rate constants are first order.
Figure 2. Compartmental model used in the toxicokinetic analysis: lag time for skin penetration ( Tlag , h), first order skin absorption constant ( Ka , h-1), volume of central compartment (V, L), peripheral compartment (P) first order transfer rate constants ( k12 and k21 , h^−1 ), and first order elimination rate constant (k, h^−1 ).
The input data were the dermally applied dose (nmol) at time zero and the mid–time point (h) and the excretion rate (nmol/h) of each chemical in the urine samples. Subjects excluded from the AUC analysis were also excluded from the toxicokinetic analysis (one FLG null carrier and one wt carrier for oxybenzone).
The software Monolix (version 2019R2; Lixoft) was used to estimate the model parameters. The built-in statistical model consists of an observation model and an individual model based on the structural toxicokinetic model. The observational model was set to a normal distribution, and a residual error model included in the observational model was used as proposed by the software after initial analysis. A lognormally distributed random effect was added to all model parameters. Correlations between parameters were accounted for if proposed by the software. The different genotypes (FLG null/wt, and FLG null/wt CNV20–22/wt CNV23–24) were entered as categorical covariates.

[2] = design: method as in Okereke et al. 1993; details: rats; ref Okereke et al. 1993; cited from earlier work
[3] = system: estrogen receptor 1, androgen receptor, and cytochrome P450 aromatase B; design: method as in Blüthgen et al. 2012; details: zebrafish, 84μg/L; ref Blüthgen et al. 2012; cited from earlier work
[4] = design: method as in Santamaria et al. 2020; details: ref Santamaria et al. 2020; cited from earlier work
[5] = system: aryl hydrocarbon receptor; design: method as in Medjakovic et al. 2014; details: in vitro; ref Medjakovic et al. 2014; cited from earlier work
[6] = in vivo, po; cited from earlier work
[7] = ref https://efsa.onlinelibrary.wiley.com/doi/pdf/10.2903/j.efsa.2006.61r; cited from earlier work
[8] = ref http://www.popstoolkit.com/tools/HHRA/TDI_USEPA.aspx; cited from earlier work
[9] = FLG null carriers, null/CNV grouping
[10] = FLG null, null vs wt grouping (Table S4)
[11] = FLG null, null/CNV grouping (Table S9)
[12] = FLG wt, null vs wt grouping (Table S4)

| SMILES | Absorption rate constant (mean ± SD), adjusted for BMI, age and sex ([1]; FLG null (Table S7)) [h⁻¹] | Lag time (mean ± SD), adjusted for BMI, age and sex ([1]; FLG null (Table S7)) [h] | Excretion rate constant K (mean ± SD) ([1]; FLG null (Table S9)) [h⁻¹] | Lag time (mean±SD) [1, 9] [h] | Absorption rate constant (mean±SD) [1, 9] [h⁻¹] | Dermal absorption rate constant (mean ± SD) [1, 10] [h⁻¹] | Lag time for dermal absorption (mean ± SD) [1, 10] [h] | Volume of central compartment (mean ± SD) [1, 11] [L] | Absorption rate constant (mean ± SD), adjusted for BMI, age and sex ([1]; FLG wt CNV20–22 (Table S7)) [h⁻¹] | Lag time (mean ± SD), adjusted for BMI, age and sex ([1]; FLG wt CNV20–22 (Table S7)) [h] | Excretion rate constant K (mean ± SD) ([1]; FLG wt CNV20–22 (Table S9)) [h⁻¹] | Volume of central compartment (mean ± SD) ([1]; FLG wt CNV20–22 (Table S9)) [L] | Lag time (mean±SD) ([1]; FLG wt CNV20–22 carriers) [h] | Absorption rate constant (mean±SD) ([1]; FLG wt CNV20–22 carriers) [h⁻¹] | Absorption rate constant (mean ± SD), adjusted for BMI, age and sex ([1]; FLG wt CNV23–24 (Table S7)) [h⁻¹] | Lag time (mean ± SD), adjusted for BMI, age and sex ([1]; FLG wt CNV23–24 (Table S7)) [h] | Excretion rate constant K (mean ± SD) ([1]; FLG wt CNV23–24 (Table S9)) [h⁻¹] | Volume of central compartment (mean ± SD) ([1]; FLG wt CNV23–24 (Table S9)) [L] | Lag time (mean±SD) ([1]; FLG wt CNV23–24 carriers) [h] | Absorption rate constant (mean±SD) ([1]; FLG wt CNV23–24 carriers) | also measured |
| --- | --- | --- | --- | --- | --- | --- | --- | --- | --- | --- | --- | --- | --- | --- | --- | --- | --- | --- | --- | --- | --- |
| COc1ccc(C(=O)c2ccccc2)c(O)c1 [Oxybenzone, (2-Hydroxy-4-methoxyphenyl)-phenylmethanone] | 0.22 ± 0.06 | 0.14 ± 0.18 | 0.05 ± 0.02 | 0.07 ± 0.01 | 0.23 ± 0.07 | 0.29 ± 0.08 | 0.10 ± 0.02 | 71.5 ± 32.4 | 0.20 ± 0.06 | 0.04 ± 0.04 | 0.05 ± 0.01 | 81.5 ± 42.7 | 0.04 ± 0.009 | 0.22 ± 0.08 | 0.13 ± 0.04 | 0.13 ± 0.17 | 0.06 ± 0.04 | 103 ± 52.36 | 0.23 ± 0.13 | 0.13 ± .04 h⁻¹ | Dermal absorption rate constant (mean ± SD) [1, 12]: 0.22 ± 0.09 h⁻¹; Lag time for dermal absorption (mean ± SD) [1, 12]: 0.13 ± 0.07 h; Mean dermal absorption rate constant higher for FLG null carriers than wt carriers with CNV23–24 ([1]; Table 2): 77%; Rate constant K21 (mean ± SD) ([1]; FLG null (Table S9)): 0.01 ± 0.006 h⁻¹; Rate constant K21 (mean ± SD) ([1]; FLG wt CNV20–22 (Table S9)): 0.01 ± 0.008 h⁻¹; Rate constant K21 (mean ± SD) ([1]; FLG wt CNV23–24 (Table S9)): 0.007 ± 0.003 h⁻¹; Rate constant K12 (mean ± SD) ([1]; FLG null (Table S9)): 0.31 ± 0.02 h⁻¹; Rate constant K12 (mean ± SD) ([1]; FLG wt CNV20–22 (Table S9)): 0.31 ± 0.02 h⁻¹; Rate constant K12 (mean ± SD) ([1]; FLG wt CNV23–24 (Table S9)): 0.32 ± 0.02 h⁻¹; Dermal absorption rate constant higher for FLG null compared with wt carriers ([1]; null vs wt grouping (Table S4)): 32%; Share of what was found in urine in the form of the parent compound, free and conjugated with glucuronic acid [2]: About 50%; Expression of estrogen receptor 1, androgen receptor, and cytochrome P450 aromatase B [3]: decreased expression; Effect in mice [4]: affect fetal growth and sex ratio |
| Cc1cc(C)nc(Nc2ccccc2)n1 [Pyrimethanil, 4,6-dimethyl-N-phenyl-2-pyrimidinamine] | – | – | – | – | – | – | – | – | – | – | – | – | – | – | – | – | – | – | – | – | Dermal absorption rate constant higher for FLG null compared with wt carriers ([1]; human, in vivo): 18%; Mean dermal absorption rate constant higher for FLG null carriers than wt carriers with CNV23–24 ([1]; human, in vivo): 50%; aryl hydrocarbon receptor activity [5]: aryl hydrocarbon receptor agonist; Share of the compound found in urine as OH-pyrimethanil [6]: 80%; acute toxicity [7]: low acute toxicity |
| c1cc2ccc3cccc4ccc(c1)c2c34 [Pyrene, pyrene] | 0.23 ± 0.09 | 0.89 ± 0.15 | 0.17 ± 0.02 | 0.91 ± 0.12 | 0.16 ± 0.05 | 0.17 ± 0.06 | 0.88 ± 0.13 | 876 ± 344 | 0.23 ± 0.10 | 1.06 ± 0.17 | 0.18 ± 0.04 | 954 ± 410 | 1.06 ± 0.16 | 0.14 ± 0.03 | 0.14 ± 0.05 | 1.34 ± 0.32 | 0.18 ± 0.02 | 1232 ± 541 | 1.41 ± 0.29 | 0.11 ± 0.03 h⁻¹ | Dermal absorption rate constant (mean ± SD) [1, 12]: 0.15 ± 0.06 h⁻¹; Lag time for dermal absorption (mean ± SD) [1, 12]: 1.20 ± 0.25 h; Mean dermal absorption rate constant higher for FLG null carriers than wt carriers with CNV23–24 ([1]; Table 2): 45%; Rate constant K21 (mean ± SD) ([1]; FLG null (Table S9)): 0.02 ± 0.0008 h⁻¹; Rate constant K21 (mean ± SD) ([1]; FLG wt CNV20–22 (Table S9)): 0.02 ± 0.0006 h⁻¹; Rate constant K21 (mean ± SD) ([1]; FLG wt CNV23–24 (Table S9)): 0.02 ± 0.0005 h⁻¹; Rate constant K12 (mean ± SD) ([1]; FLG null (Table S9)): 0.12 ± 0.04 h⁻¹; Rate constant K12 (mean ± SD) ([1]; FLG wt CNV20–22 (Table S9)): 0.12 ± 0.03 h⁻¹; Rate constant K12 (mean ± SD) ([1]; FLG wt CNV23–24 (Table S9)): 0.11 ± 0.02 h⁻¹; tolerable daily intake (TDI) [8]: 0.03 mg/kg |
